Source: patent publication US8178506B2, “Oligomeric compounds and compositions for use in modulation of small non-coding RNAs” (Regulus Therapeutics Inc., priority 2003, dated 2012)
In the oligonucleotide strings, read from the 5' end, every base follows the letter of its sugar. An asterisk marks phosphorothioate; unmarked linkages are phosphodiester. Other units and linkages are bracketed, terminal groups are in braces. A string of capitals states the bases alone. e = 2'-O-(2-methoxyethyl) (MOE); [5mC] = 5-methylcytosine; d = 2'-deoxy (DNA)

Columns and labels:
[1] = system: let-7d pri-miRNA; test: let-7d pri-miRNA expression in T-24 cells; assay type: cell-based, human; conditions: 100 nM
Experimental: Using the transfection methods previously described, supra, T-24 cells were treated with 100 nM of the oligomeric compound ISIS Number 327926 (SEQ ID NO: 344) targeting the let-7d mature miRNA. Total RNA was isolated and expression levels of the let-7d pri-miRNA were analyzed by real-time quantitative RT-PCR using a primer/probe set specific for the let-7d pri-miRNA molecule (forward primer=ISIS 341678 (CCTAGGAAGAGGTAG TAGGTTGCA; herein incorporated as SEQ ID NO.: 771), reverse primer=ISIS 341679 ([…]; herein incorporated as SEQ ID NO.: 772), and probe=ISIS 341680 ([…]; herein incorporated as SEQ ID NO.: 773)).

[2] = system: let-7i pri-miRNA; test: let-7i pri-miRNA expression in HeLa cells; assay type: cell-based, human; conditions: 100 nM
Experimental: Using the transfection methods previously described, HeLa cells were treated with 100 nM of the oligomeric compound ISIS Number 327890 (SEQ ID NO: 308) targeting the let-7i mature miRNA. Total RNA was isolated and expression levels of the let-7i pri-miRNA were analyzed by real-time quantitative RT-PCR using a primer/probe set specific for the let-7i pri-miRNA molecule [forward primer-ISIS 341684 ([…]; herein incorporated as SEQ ID NO.: 777), reverse primer=ISIS 341685 ([…]; herein incorporated as SEQ ID NO.: 778), and probe=ISIS 341686 ([…]; herein incorporated as SEQ ID NO.: 779)].

[3] = system: IL-6 mRNA; test: IL-6 mRNA in LPS-activated primary murine macrophages; assay type: cell-based, mouse; conditions: IFN-gamma-stimulated and unstimulated cells, 75-600 nM
Experimental: To investigate the role of miRNAs in the immune response, oligomeric compounds of the present invention targeting miRNAs were tested for their effects upon lipopolysaccharide (LPS)-activated primary murine macrophages. Macrophages participate in the immune response, for example, in the recognition and phagocytosis of microorganisms, including bacteria. Interferon-gamma (IFN-gamma) released by helper T cells is one type of signal required for macrophage activation, and LPS can serve as an additional stimulus. LPS is a component of the gram-negative bacterial cell wall and acts as an agonist for toll-like receptor 4 (TLR4), the primary LPS receptor expressed by macrophages. The proinflammatory cytokines interleukin-12 (IL-12) and interleukin-6 (IL-6) are induced by LPS treatment of macrophages, thus the expression of the mRNAs encoding these cytokines was used to evaluate the response of macrophages to LPS following treatment with oligomeric compounds targeting miRNAs.
Macrophages were isolated as follows. Female C57B1/6 mice (Charles River Laboratories, Wilmington, Mass.) were injected intraperitoneally with 1 ml 3% thioglycollate broth (Sigma-Aldrich, St. Louis, Mo.), and peritoneal macrophage cells were isolated by peritoneal lavage 4 days later. The cells were plated in 96-well plates at 40,000 cells/well for one hour in serum-free RPMI adjusted to contain 10 mM HEPES (Invitrogen Life Technologies, Carlsbad, Calif.), allowed to adhere, then non-adherent cells were washed away and the media was replaced with RPMI containing 10 mM HEPES, 10% FBS and penicillin/streptomycin (“complete” RPMI; Invitrogen Life Technologies, Carlsbad, Calif.).
Oligomeric compounds were introduced into the cells using the non-liposomal transfection reagent FuGENE 6 Transfection Reagent (Roche Diagnostics Corp., Indianapolis, Ind.). Oligomeric compound was mixed with FuGENE 6 in 1 mL of serum-free RPMI to achieve a concentration of 10 μL FuGENE per 1000 nM oligomeric compound. The oligomeric compound/FuGENE complex was allowed to form at room temperature for 20 minutes. This mixture was diluted to the desired concentration of oligomeric compound by the addition of the appropriate volume of complete RPMI. The final ratio of FuGENE 6 to oligomeric compound was 1 μL of FuGENE 6 per 100 nM oligomeric compound. A volume of 100 μL of oligomeric compound/FuGENE/RPMI was added to each well of the 96-well plate in which the macrophages were cultured. Each oligomeric compound treatment was repeated in triplicate.
Following oligomeric compound treatment, cells were stimultated with LPS. Cells were cultured in the presence of the transfection complex for approximately 24 to 28 hours at 37° C. and 5% CO2, after which the medium containing the transfection complex was removed from the cells, and complete RPMI containing 100 ng/mL LPS (Sigma-Aldrich Corp., St. Louis, Mo.) was added to the cells for a period of approximately 24 hours. Control samples included (1) cells receiving no oligomeric compound, stimulated with LPS and (2) cells receiving neither oligomeric compound nor LPS treatment.
In another embodiment, following oligomeric compound treatment, cells were first activated by IFN-gamma, to amplify the response to LPS. Cells were cultured in the presence of the transfection complex for approximately 24 hours at 37° C. and 5% CO2, at which point the medium containing the transfection complex was removed from the cells, and complete RPMI containing 100 ng/mL recombinant mouse IFN-gamma (R&D Systems, Minneapolis, Minn.) was added to the cells. After the 4 hour treatment with INF-gamma, cells were treated with 100 ng/mL LPS for approximately 24 hours. Control samples included (1) cells receiving no oligomeric compound, stimulated with LPS and (2) cells receiving neither oligomeric compound nor LPS treatment. […]

[4] = system: IL-12 mRNA; test: IL-12 mRNA in LPS-activated primary murine macrophages; assay type: cell-based, mouse; conditions: LPS-stimulated primary murine macrophages
[5] = system: TLR4; test: TLR4 mRNA in primary murine macrophages; assay type: cell-based, mouse; conditions: LPS-stimulated and LPS- and IFN-gamma-stimulated macrophages
Experimental: Following the 24 hour treatment with LPS, the cells were lysed and RNA was isolated using the RNEASY 96™ kit, as described herein. mRNA expression was quantitated by real-time PCR, performed as described herein, using primer and probe sets to amplify and quantitate TLR4, IL-12 and IL-6 mRNA expression levels. Primers and probe for TLR4, designed using GenBank Accession number NM_021297.1, were: forward primer, 5′-[…]-3′ (SEQ ID NO: 2172), reverse primer, 5′-[…]-3′ (SEQ ID NO: 2173), probe 5′-FAM-[…]-TAMRA-3′ (SEQ ID NO: 2174). Primers and probe for IL-12, designed using GenBank Accession number M86671.1, were: forward primer, 5′-[…]-3′ (SEQ ID NO: 2175), reverse primer, 5′-[…]-3′ (SEQ ID NO: 2176), probe 5′-FAM-[…]-TAMRA-3′ (SEQ ID NO: 2177). Primers and probe for IL-6, designed using GenBank Accession number X54542.1, were: forward primer, 5′-[…]-3′ (SEQ ID NO: 2178), reverse primer, 5′-[…]-3′ (SEQ ID NO: 2179), probe 5′-FAM-[…]-TAMRA-3′ (SEQ ID NO: 2180). The amount of total RNA in each sample was determined using a Ribogreen Assay (Molecular Probes, Eugene, Oreg.), and expression levels of TLR4, IL-12 and IL-6 were normalized to total RNA.
TLR4 is the primary macrophage receptor for LPS. […]

[6] = system: mir-24-2 pri-miRNA; test: mir-24-2 pri-miRNA expression in HeLa cells; assay type: cell-based, human; conditions: 100 nM
Experimental: The expression levels of mir-24-2, let-7i , and let-7d were assessed in HeLa or T-24 cells treated with various uniform 2′-MOE oligomeric compounds targeting mature miRNAs. For example, using the transfection methods previously described, HeLa cells were treated with 100 nM of the oligomeric compound ISIS Number 327945 (SEQ ID NO: 363) targeting the mir-24-2 mature miRNA. Total RNA was isolated and expression levels of the mir-24-2 pri-miRNA were analyzed by real-time quantitative RT-PCR using a primer/probe set specific for the mir-24-2 pri-miRNA molecule [forward primer=ISIS 359358 (CCCTGGGCTCTGCCT; herein incorporated as SEQ ID NO.: 908), reverse primer-ISIS 359359 ([…]; herein incorporated as SEQ ID NO.: 909), and probe=ISIS 359360 (CGTGCCTACTGAGC; herein incorporated as SEQ ID NO.: 910)].

Sequence: ACTATGCAACCTACTACCTCT (chemistry not given here) [ISIS 327926, uniform 2′-MOE PS; targets let-7d]
- increase in expression levels of the let-7d pri-miRNA molecule [1]: approximately 1.7 fold

Sequence: AGCACAAACTACTACCTCA (chemistry not fully specified) [ISIS 327890, uniform 2′-MOE PS; targets let-7i]
- increase in expression levels of the let-7i pri-miRNA molecule [2]: approximately 4 fold

Sequence: CCACATTGAGTTTCTTTAAG (e[5mC]*e[5mC]*eA*e[5mC]*eA*dT*dT*dG*dA*dG*dT*dT*dT*d[5mC]*dT*eT*eT*eA*eA*eG) [ISIS 229927, 5-10-5 2′-MOE gapmer PS targeting mouse TLR4 mRNA, positive control, reference compound]
- IL-6 expression [3]: some reduction in IL-6 expression
- IL-12 mRNA expression [4]: dose-dependent reduction in IL-12
- expression of TLR4 [5]: reduced the expression of TLR4 in a dose-dependent manner

Sequence: CTGTTCCTGCTGAACTGAGCCA (anti-miR; chemistry not fully specified) [ISIS 327945, uniform 2′-MOE PS; targets mir-24-2]
- increase in expression levels of the mir-24-2 pri-miRNA molecule [6]: approximately 35 fold
